Patent publication US10945989B2, “Perinatal treatment with a flavonoid agonist of the TrkB receptor for BDNF rescues neurogenesis and behavior in the Ts65Dn mouse model of DS” (ALMA MATER STUDIORUM—Universita' di Bologna, priority 2017, dated 2021)

Key:
ERK1/ERK2 = assay: Western blot of hippocampal homogenates: ERK1/2 and p-ERK1/2; format: in vivo, mouse; conditions: for ERK2/ERK1 ratio, mean / p-ERK2/p-ERK1 ratio, mean: hippocampal region
Protocol: Euploid and Ts65Dn mice received a daily subcutaneous injection (at 9-10 am) of 7,8-DHF (5.0 mg/kg in vehicle: PBS with 1% DMSO) or vehicle from postnatal day 3 (P3) to postnatal day 15. This timing was chosen because it corresponds to that previously used to test the effects of fluoxetine and other pharmacotherapies in the neonate Ts65Dn mouse (Bianchi et al., 2010b; Giacomini et al., 2015; Stagni et al., 2016). Mice that received 7,8-DHF will be called “treated mice” (treated euploid mice: n=25; treated Ts65Dn mice: n=15). Mice that received the vehicle will be called “untreated mice” (untreated euploid mice: n=35; untreated Ts65Dn mice: n=21). […] The brains were excised and cut along the midline. The left hemisphere of a group of mice was fixed by immersion in PFA 4% and frozen, and the left hemisphere of another group of mice was used for Golgi staining. The right hemispheres of all mice was kept at −80° C. and used for western blotting.
In homogenates of the hippocampal formation of P15 mice, total proteins were obtained as previously described (Trazzi et al., 2011) and the levels of the following proteins were evaluated: BDNF, TrkB full length (TrkB-FL), phosphorylated TrkB (p-TrkB), the truncated form 1 of the TrkB receptor (TrkB-T1), phosphorylated ERK1 (p-ERK1), phosphorylated ERK2 (p-ERK2), ERK1, ERK2, synaptophysin (SYN), GAPDH and α-Tubulin using the antibodies reported in Table 1. Densitometric analysis of digitized images with ChemiDoc XRS+ was performed with Image Lab software (Bio-Rad Laboratories, Hercules, Calif., USA) and intensity for each band was normalized to the intensity of the corresponding GAPDH or α-Tubulin band.

Ts65Dn and euploid mice = assay: Morris Water Maze, learning phase; format: in vivo, mouse
Protocol: Euploid and Ts65Dn mice received a daily subcutaneous injection (at 9-10 am) of 7,8-DHF (5.0 mg/kg in vehicle) or vehicle from postnatal day 3 (P3) to postnatal day P45-P50. […] These mice will be called here P45 mice. Mice were behaviorally tested in the 6 days that preceded the day of sacrifice (FIG. 2B).
Mice were trained in the MWM task to locate a hidden escape platform in a circular pool, using a previously used protocol (Stagni et al., 2016), that was altogether based on a published protocol (Vorhees and Williams, 2006). The apparatus consisted of a large circular water tank (1.00 m diameter, 50 cm height) with a transparent round escape platform (10 cm^2). The pool was virtually divided into four equal quadrants identified as northeast, northwest, southeast, and southwest. The tank was filled with tap water at a temperature of 22±1.0° C. Mice are more prone to undergo hypothermia than rats and in the MWM hypothermia may cause a reduction in swimming speed (livonen et al., 2003). […] This is consistent with evidence that a temperature of 22° C. is “high enough” to reduce stress and potential hypothermia and “low enough” to maintain the animals' motivation to escape the pool (Costa et al., 2010). The tank was filled with water up to 0.5 cm above the top of the platform and the water was made opaque with milk. The platform was placed in the tank in a fixed position (in the middle of the south-west quadrant). The pool was placed in a large room with various intra (squares, triangles, circles and stars) and extra-maze visual cues. Each mouse was tested in one session of 4 trial on the first day and in two sessions of 4 trials in the following 4 days with an inter-session interval of 45 min. A video camera was placed above the center of the pool and connected to a videotracking system (Ethovision 3.1; Noldus Information Technology B.V., Wageningen, Netherlands). Mice were released facing the wall of the pool from one of the following starting points: North, East, South, or West and allowed to search for up to 60 s for the platform. […] During the inter-trail time (10 s) mice were placed in an empty cage. For the learning phase, we evaluated the latency to find the hidden platform, time in periphery, percentage of time in periphery, path length, proximity to the platform, and swimming speed. Retention was assessed with one trial (probe trial), on the sixth day, 24 h after the last acquisition trial, using the same starting point for all mice. Mice were allowed to search for up to 60 s for the platform. For the probe trial, the latency of the first entrance in the former platform zone, the frequency of entrances in the former quadrant, the proximity to the former platform position (Gallagher's test), the percentage of time spent at the periphery (thigmotaxis), the swimming speed and the percentage of time spent in each quadrant were employed as measures of retention of acquired spatial preference. All experimental sessions were carried out between 9.00 am and […]. The following number of mice were tested. Untreated euploid mice: n=19; untreated Ts65Dn mice: n=14; 7,8-DHF-treated euploid mice: n=17; 7,8-DHF-treated Ts65Dn mice: n=16. Three untreated euploid mice (yielding n=16), one 7,8-DHF-treated euploid mouse (yielding n=16) and one 7,8-DHF-treated Ts65Dn mouse (yielding n=15) were excluded from MWM analysis due to thigmotaxis for a whole recording session.

**Q.** How did the p-ERK1 levels (ERK1/ERK2; P15 Ts65Dn mice, vs untreated Ts65Dn and untreated euploid mice) turn out when `O=c1cc(-c2ccccc2)oc2c(O)c(O)ccc12` [7,8-DHF, 7,8-dihydroxyflavone] was run?
**A.** The p-ERK1 levels was “increase in p-ERK1 levels”.

**Q.** What about the ERK1 levels (ERK1/ERK2; P15 Ts65Dn mice, vs untreated Ts65Dn mice) of the same compound?
**A.** The ERK1 levels was “increase in ERK1 levels”.

**Q.** What about the ERK2 levels (ERK1/ERK2; P15 Ts65Dn mice, vs untreated counterparts and untreated euploid mice) of the same compound?
**A.** Its ERK2 levels is “increase in ERK2 levels”.

**Q.** What about the p-ERK2 levels (ERK1/ERK2; P15 Ts65Dn mice, vs untreated euploid mice) of the same compound?
**A.** The p-ERK2 levels was “increase in p-ERK2 levels”.

**Q.** What about the ERK2 levels (ERK1/ERK2; P15 euploid mice, vs untreated counterparts) of the same compound?
**A.** The ERK2 levels was “increase in ERK2 levels”.

**Q.** And the “stoichiometry of ERK1/2 and p-ERK1/2” value (ERK1/ERK2; Ts65Dn mice)?
**A.** The value was “did not affect their stoichiometry”.

**Q.** What about the “ERK2/ERK1 ratio, mean” value (ERK1/ERK2; Ts65Dn mice, 7,8-DHF P3-P15) of the same compound?
**A.** Its value is 3.93.

**Q.** And the “p-ERK2/p-ERK1 ratio, mean” value (ERK1/ERK2; Ts65Dn mice, 7,8-DHF P3-P15)?
**A.** The value was 2.01.

**Q.** What about the “ERK2/ERK1 ratio, mean” value (ERK1/ERK2; euploid mice, 7,8-DHF P3-P15) of the same compound?
**A.** Its value is 4.18.

**Q.** And the “p-ERK2/p-ERK1 ratio, mean” value (ERK1/ERK2; euploid mice, 7,8-DHF P3-P15)?
**A.** Its value is 2.32.

**Q.** What about the “time spent at the periphery (thigmotaxis)” value (Ts65Dn and euploid mice; Ts65Dn mice) of the same compound?
**A.** The value was “spent a similar time as euploid mice”.

**Q.** What about the “escape latency (learning phase)” value (Ts65Dn and euploid mice; Ts65Dn mice, 5.0 mg/kg P3-P45-50, save for day 3) of the same compound?
**A.** Its value is “not statistically different from that of untreated euploid mice”.

**Q.** What about the path length (Ts65Dn and euploid mice; Ts65Dn mice, day 5) of the same compound?
**A.** Its path length is “shorter in comparison with their untreated counterparts”.

**Q.** What about the “proximity (distance from the platform)” value (Ts65Dn and euploid mice; Ts65Dn mice, day 5) of the same compound?
**A.** Its value is “significantly reduced in comparison with their untreated counterparts”.

**Q.** What about the “percentage of time spent at the periphery” value (Ts65Dn and euploid mice; Ts65Dn mice, significant vs untreated counterparts on day 5) of the same compound?
**A.** Its value is “underwent a reduction”.

**Q.** What about the “time spent at the periphery (thigmotaxis)” value (Ts65Dn and euploid mice; euploid mice) of the same compound?
**A.** The value was “reduction in thigmotaxis”.

**Q.** And the “escape latency (learning phase)” value (Ts65Dn and euploid mice; euploid mice, vs untreated, significant on day 2 only)?
**A.** Its value is “latency was reduced”.
